Activity calls are given as the source filed them. The rule behind the calls is not given here.
Experiments:
[1] = target: T1, Ubiquitin carboxyl-terminal hydrolase 8 (Homo sapiens) (UniProt P40818); test: Inhibition of N-terminal His6-tagged USP8 catalytic domain (734 to 1110 residues) in HEK293T intact cells up to 100 uM in presence of HA-Ub-VS probe by USP8 antibody based Western blotting assay; format: cell-based
T1 sequence (whole entry): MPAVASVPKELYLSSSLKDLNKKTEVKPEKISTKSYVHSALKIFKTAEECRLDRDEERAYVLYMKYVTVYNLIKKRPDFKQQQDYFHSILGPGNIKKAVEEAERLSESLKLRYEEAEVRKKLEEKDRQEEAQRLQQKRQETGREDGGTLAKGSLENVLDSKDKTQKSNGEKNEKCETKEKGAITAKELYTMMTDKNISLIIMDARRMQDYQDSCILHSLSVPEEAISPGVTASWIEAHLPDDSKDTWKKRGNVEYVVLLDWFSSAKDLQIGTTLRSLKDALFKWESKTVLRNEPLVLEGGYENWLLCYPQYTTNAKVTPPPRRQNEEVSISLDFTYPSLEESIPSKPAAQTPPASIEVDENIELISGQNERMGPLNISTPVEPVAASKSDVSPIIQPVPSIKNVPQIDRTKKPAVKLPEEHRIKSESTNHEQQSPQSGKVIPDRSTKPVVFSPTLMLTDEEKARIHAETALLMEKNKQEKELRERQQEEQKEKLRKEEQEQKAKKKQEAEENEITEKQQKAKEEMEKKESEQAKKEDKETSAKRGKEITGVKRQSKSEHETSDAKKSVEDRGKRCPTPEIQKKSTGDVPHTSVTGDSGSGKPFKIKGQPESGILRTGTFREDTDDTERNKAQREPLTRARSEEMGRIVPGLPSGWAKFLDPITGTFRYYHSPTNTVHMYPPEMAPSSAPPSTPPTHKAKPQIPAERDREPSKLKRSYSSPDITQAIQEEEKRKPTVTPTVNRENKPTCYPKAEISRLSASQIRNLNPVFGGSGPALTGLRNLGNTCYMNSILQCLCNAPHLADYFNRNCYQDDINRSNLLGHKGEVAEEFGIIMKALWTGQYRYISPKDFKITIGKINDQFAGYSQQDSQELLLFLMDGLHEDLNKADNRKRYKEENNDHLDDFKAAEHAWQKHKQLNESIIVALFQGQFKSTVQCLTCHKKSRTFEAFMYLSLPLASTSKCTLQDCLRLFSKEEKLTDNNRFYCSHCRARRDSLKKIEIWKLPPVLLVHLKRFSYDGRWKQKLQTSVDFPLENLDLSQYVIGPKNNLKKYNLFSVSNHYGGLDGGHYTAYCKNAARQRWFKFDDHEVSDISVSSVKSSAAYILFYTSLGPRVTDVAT

MCF7 [2] = test: Antiproliferative activity against human MCF7 cells assessed as reduction in colony formation at 3 uM incubated for 7 days by crystal violet staining based colony formation assay; format: functional, cell-based; details: time 7.0 day
MCF7 [3] = test: Induction of apoptosis in human MCF7 cells assessed as increase in apoptotic cells at 1 uM incubated for 12 hrs by AnnexinV-FITC/propidium iodide staining based flow cytometry relative to control (reference value: 2.00 %); format: functional
[4] = target: T1, Ubiquitin carboxyl-terminal hydrolase 8 (Homo sapiens); test: Inhibition of N-terminal His6-tagged USP8 catalytic domain (734 to 1110 residues) in HEK293T intact cells up to 100 uM in presence of HA-Ub-VS probe by HA antibody based Western blotting assay; format: cell-based
MCF7 [5] = test: Downregulation of progesterone receptor expression in human MCF7 cells assessed as protein stability by measuring reduction in half life measured up to 24 hrs in presence of cycloheximide by Western blotting analysis; format: functional, cell-based
[6] = Toxicity in BALB/c mouse xenografted with human MCF7 cells assessed as effect on liver at 5 to 20 mg/kg, […] every other day measured after 14 days by hematoxylin and eosin staining based analysis; format: organism-based; details: in vivo, 336 h, dose 5-20 mg/kg, time 14 day
MCF7 [7] = test: Antitumor activity against human MCF7 cells xenografted in BALB/c mouse assessed as reduction of ERalpha phosphorylation in tumor tissue at 5 to 20 mg/kg, ip administered via gavage every other day for 14 days by immunohistochemistry analysis; format: functional, organism-based; details: dose 5-20 mg/kg, time 14.0 day
MCF7 [8] = test: Downregulation of ERalpha expression in human MCF7 cells assessed as protein stability by measuring reduction in half life measured up to 24 hrs in presence of cycloheximide by Western blotting analysis; format: functional, cell-based
MCF7 [9] = test: Induction of apoptosis in human MCF7 cells assessed as increase in apoptotic cells at 0.2 uM incubated for 12 hrs by AnnexinV-FITC/propidium iodide staining based flow cytometry relative to control (reference value: 2.00 %); format: functional
[10] = target: T1, Ubiquitin carboxyl-terminal hydrolase 8 (Homo sapiens); test: Inhibition of N-terminal His6-tagged USP8 catalytic domain (734 to 1110 residues) in HEK293T cell lysates up to 100 uM in presence of HA-Ub-VS probe by HA antibody based Western blotting assay; format: subcellular
[11] = Toxicity in BALB/c mouse xenografted with human MCF7 cells assessed as effect on heart at 5 to 20 mg/kg, […] every other day measured after 14 days by hematoxylin and eosin staining based analysis; format: organism-based; details: in vivo, 336 h, dose 5-20 mg/kg, time 14 day
[12] = target: T1, Ubiquitin carboxyl-terminal hydrolase 8 (Homo sapiens); test: Inhibition of N-terminal His6-tagged USP8 catalytic domain (734 to 1110 residues) in HEK293T cell lysates up to 100 uM in presence of HA-Ub-VS probe by USP8 antibody based Western blotting assay; format: subcellular
MCF7 [13] = test: Induction of apoptosis in human MCF7 cells assessed as reduction in ErbB2 expression level up to 5 uM incubated for 24 hrs by Western blotting analysis; format: functional, cell-based
MCF7 [14] = test: Downregulation of ERalpha expression in human MCF7 cells measured after 24 hrs by Western blotting analysis; format: functional, cell-based; details: dose 0.5-5 µM, DDE = dose-dependent effect
MCF7 [15] = test: Induction of apoptosis in human MCF7 cells assessed as reduction in EGFR expression level up to 5 uM incubated for 24 hrs by Western blotting analysis; format: functional, cell-based
[16] = Toxicity in BALB/c mouse xenografted with human MCF7 cells assessed as change in body weight at 5 to 20 mg/kg, […] every other day for 14 days; format: organism-based; details: in vivo, 336 h, dose 5-20 mg/kg, time 14 day
MCF7 [17] = test: Downregulation of progesterone receptor expression in human MCF7 cells measured after 24 hrs by Western blotting analysis; format: functional, cell-based; details: dose 0.5-5 µM, DDE = dose-dependent effect
Homo sapiens = species on record: Homo sapiens; test: Selectivity ratio of IC50 for USP2 (unknown origin) catalytic domain to IC50 for USP8 (unknown origin) catalytic domain
[18] = Toxicity in BALB/c mouse xenografted with human MCF7 cells assessed as effect on alanine aminotransferase level at 5 to 20 mg/kg, […] every other day measured after 14 days; format: organism-based; details: in vivo, 336 h, dose 5-20 mg/kg, time 14 day
[19] = Toxicity in BALB/c mouse xenografted with human MCF7 cells assessed as effect on lung at 5 to 20 mg/kg, […] every other day measured after 14 days by hematoxylin and eosin staining based analysis; format: organism-based; details: in vivo, 336 h, dose 5-20 mg/kg, time 14 day
MCF7 [20] = test: Induction of apoptosis in human MCF7 cells assessed as reduction in ErbB3 expression level up to 5 uM incubated for 24 hrs by Western blotting analysis; format: functional, cell-based

inhibition [1]: Active
inhibition [4]: Active
inhibition [10]: Active
inhibition [12]: Active
Ratio IC50 (Homo sapiens): 49
SMILES: Cc1n[nH]c(C)c1Oc1c(O)cc(O)c2c(=O)cc(-c3ccc(N4CCN(c5ccccn5)CC4)cc3)oc12
Activity (MCF7 [2]): Active
Activity (MCF7 [3]): 3.45%
Activity (MCF7 [5]): Active
Activity [6]: Non-Toxic
Activity (MCF7 [7]): Active
Activity (MCF7 [8]): Active
Activity (MCF7 [9]): 1.9%
Activity [11]: Non-Toxic
Activity (MCF7 [13]): Active
Activity (MCF7 [14]): Dde
Activity (MCF7 [15]): Active
Activity [16]: Non-Toxic
Activity (MCF7 [17]): Dde
Activity [18]: Non-Toxic
Activity [19]: Non-Toxic
Activity (MCF7 [20]): Active
